Laboratory results reported in the supplement of paper PMC10307832.

Tests used:
Assay in all cases: relative viability (nuclei count vs DMSO), 5 days (fraction); higher = more cells survive
[1] = tested on: NCI-H596
Method in brief: (§1)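 Lung cancer cell lines were seeded in 1536-well plates and dosed by pin tool the next day, with either a single drug or a fixed anchor-drug dose combined with five library-drug doses (not always all listed) spaced in √10 steps. Five days later, one step fixed the cells and stained their nuclei (final 0.05% Triton X-100, 1% formaldehyde, 1 ug/ml Hoechst), and nuclei were counted on 4× images. Relative viability is the nuclei count in treated wells divided by the count in vehicle wells, and each value is the median of duplicate plates.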

[2] = tested on: NCI-H1703
Method in brief: as §1

[3] = tested on: UMC-11
Method in brief: as §1

[4] = tested on: NCI-H1299
Method in brief: as §1

[5] = tested on: NCI-H1648
Method in brief: as §1

[6] = tested on: Calu-6
Method in brief: as §1

[7] = tested on: NCI-H1993
Method in brief: as §1

[8] = tested on: IA-LM
Method in brief: as §1

[9] = tested on: NCI-H23
Method in brief: as §1

[10] = tested on: NCI-H1355
Method in brief: as §1

[11] = tested on: A549
Method in brief: as §1

[12] = tested on: LCLC-97TM1
Method in brief: as §1

[13] = tested on: EBC-1
Method in brief: as §1

[14] = tested on: NCI-H322M
Method in brief: as §1

COc1nc(C)cnc1NS(=O)(=O)c1cccnc1-c1ccc(-c2nnco2)cc1 [Zibotentan] + O=C(c1cc(Cc2n[nH]c(=O)c3ccccc23)ccc1F)N1CCN(C(=O)C2CC2)CC1 [Olaparib] (partner 8 µM)
relative viability ([1]; first compound 0.08 µM): 0.661 | relative viability ([1]; first compound 0.253 µM): 0.595 | relative viability ([1]; first compound 0.8 µM): 0.831 | relative viability ([1]; first compound 2.53 µM): 0.774 | relative viability ([2]; first compound 0.08 µM): 0.476 | relative viability ([2]; first compound 0.253 µM): 0.368 | relative viability ([2]; first compound 0.8 µM): 0.435 | relative viability ([2]; first compound 2.53 µM): 0.292 | relative viability ([3]; first compound 0.08 µM): 0.321 | relative viability ([3]; first compound 0.253 µM): 0.409 | relative viability ([3]; first compound 0.8 µM): 0.44 | relative viability ([3]; first compound 2.53 µM): 0.438 | relative viability ([4]; first compound 0.08 µM): 1.01 | relative viability ([4]; first compound 0.253 µM): 0.906 | relative viability ([4]; first compound 0.8 µM): 0.973 | relative viability ([4]; first compound 2.53 µM): 1 | relative viability ([5]; first compound 0.08 µM): 0.853 | relative viability ([5]; first compound 0.253 µM): 0.503 | relative viability ([5]; first compound 0.8 µM): 0.85 | relative viability ([5]; first compound 2.53 µM): 0.954 | relative viability ([6]; first compound 0.08 µM): 0.61 | relative viability ([6]; first compound 0.253 µM): 0.518 | relative viability ([6]; first compound 0.8 µM): 0.621 | relative viability ([6]; first compound 2.53 µM): 0.555 | relative viability ([7]; first compound 0.08 µM): 1.01 | relative viability ([7]; first compound 0.253 µM): 0.842 | relative viability ([7]; first compound 0.8 µM): 0.853 | relative viability ([7]; first compound 2.53 µM): 1.08 | relative viability ([8]; first compound 0.08 µM): 0.966 | relative viability ([8]; first compound 0.253 µM): 0.86 | relative viability ([8]; first compound 0.8 µM): 0.938 | relative viability ([8]; first compound 2.53 µM): 0.824 | relative viability ([9]; first compound 0.08 µM): 0.266 | relative viability ([9]; first compound 0.253 µM): 0.235 | relative viability ([9]; first compound 0.8 µM): 0.242 | relative viability ([9]; first compound 2.53 µM): 0.251 | relative viability ([10]; first compound 0.08 µM): 0.829 | relative viability ([10]; first compound 0.253 µM): 0.691 | relative viability ([10]; first compound 0.8 µM): 0.751 | relative viability ([10]; first compound 2.53 µM): 0.756 | relative viability ([11]; first compound 0.08 µM): 0.365 | relative viability ([11]; first compound 0.253 µM): 0.31 | relative viability ([11]; first compound 0.8 µM): 0.333 | relative viability ([11]; first compound 2.53 µM): 0.32 | relative viability ([12]; first compound 0.08 µM): 0.383 | relative viability ([12]; first compound 0.253 µM): 0.393 | relative viability ([12]; first compound 0.8 µM): 0.433 | relative viability ([12]; first compound 2.53 µM): 0.385 | relative viability ([13]; first compound 0.08 µM): 0.698 | relative viability ([13]; first compound 0.253 µM): 0.713 | relative viability ([13]; first compound 0.8 µM): 0.827 | relative viability ([13]; first compound 2.53 µM): 0.651 | relative viability ([14]; first compound 0.08 µM): 0.758 | relative viability ([14]; first compound 0.253 µM): 0.659 | relative viability ([14]; first compound 0.8 µM): 0.949 | relative viability ([14]; first compound 2.53 µM): 0.727

CCN(CC)CCCCNc1ncc2cc(-c3cc(OC)cc(OC)c3)c(NC(=O)NC(C)(C)C)nc2n1 + O=C(c1cc(Cc2n[nH]c(=O)c3ccccc23)ccc1F)N1CCN(C(=O)C2CC2)CC1 [Olaparib] (partner 8 µM)
relative viability ([1]; first compound 0.01 µM): 0.649 | relative viability ([1]; first compound 0.03162 µM): 0.727 | relative viability ([1]; first compound 0.1 µM): 0.635 | relative viability ([1]; first compound 0.3162 µM): 0.723 | relative viability ([1]; first compound 1 µM): 0.563 | relative viability ([2]; first compound 0.01 µM): 0.313 | relative viability ([2]; first compound 0.03162 µM): 0.421 | relative viability ([2]; first compound 0.1 µM): 0.52 | relative viability ([2]; first compound 0.3162 µM): 0.383 | relative viability ([2]; first compound 1 µM): 0.388 | relative viability ([3]; first compound 0.01 µM): 0.39 | relative viability ([3]; first compound 0.03162 µM): 0.372 | relative viability ([3]; first compound 0.1 µM): 0.422 | relative viability ([3]; first compound 0.3162 µM): 0.353 | relative viability ([3]; first compound 1 µM): 0.422 | relative viability ([4]; first compound 0.01 µM): 1.03 | relative viability ([4]; first compound 0.03162 µM): 0.991 | relative viability ([4]; first compound 0.1 µM): 1.01 | relative viability ([4]; first compound 0.3162 µM): 1.04 | relative viability ([4]; first compound 1 µM): 0.998 | relative viability ([5]; first compound 0.01 µM): 0.991 | relative viability ([5]; first compound 0.03162 µM): 0.767 | relative viability ([5]; first compound 0.1 µM): 0.781 | relative viability ([5]; first compound 0.3162 µM): 0.703 | relative viability ([5]; first compound 1 µM): 0.648 | relative viability ([6]; first compound 0.03162 µM): 0.583 | relative viability ([6]; first compound 0.1 µM): 0.627 | relative viability ([6]; first compound 0.3162 µM): 0.694 | relative viability ([6]; first compound 1 µM): 0.556 | relative viability ([7]; first compound 0.01 µM): 1.01 | relative viability ([7]; first compound 0.03162 µM): 1.01 | relative viability ([7]; first compound 0.1 µM): 1.14 | relative viability ([7]; first compound 0.3162 µM): 1.26 | relative viability ([7]; first compound 1 µM): 0.99 | relative viability ([8]; first compound 0.01 µM): 0.821 | relative viability ([8]; first compound 0.03162 µM): 0.88 | relative viability ([8]; first compound 0.1 µM): 0.946 | relative viability ([8]; first compound 0.3162 µM): 0.762 | relative viability ([8]; first compound 1 µM): 0.936 | relative viability ([9]; first compound 0.01 µM): 0.306 | relative viability ([9]; first compound 0.03162 µM): 0.226 | relative viability ([9]; first compound 0.1 µM): 0.375 | relative viability ([9]; first compound 0.3162 µM): 0.362 | relative viability ([9]; first compound 1 µM): 0.332 | relative viability ([10]; first compound 0.01 µM): 0.789 | relative viability ([10]; first compound 0.03162 µM): 0.719 | relative viability ([10]; first compound 0.1 µM): 0.853 | relative viability ([10]; first compound 0.3162 µM): 0.83 | relative viability ([10]; first compound 1 µM): 0.737 | relative viability ([11]; first compound 0.01 µM): 0.273 | relative viability ([11]; first compound 0.03162 µM): 0.367 | relative viability ([11]; first compound 0.1 µM): 0.318 | relative viability ([11]; first compound 0.3162 µM): 0.32 | relative viability ([11]; first compound 1 µM): 0.349 | relative viability ([12]; first compound 0.01 µM): 0.413 | relative viability ([12]; first compound 0.03162 µM): 0.399 | relative viability ([12]; first compound 0.1 µM): 0.479 | relative viability ([12]; first compound 0.3162 µM): 0.512 | relative viability ([12]; first compound 1 µM): 0.222 | relative viability ([13]; first compound 0.01 µM): 0.738 | relative viability ([13]; first compound 0.03162 µM): 0.684 | relative viability ([13]; first compound 0.1 µM): 0.779 | relative viability ([13]; first compound 0.3162 µM): 0.824 | relative viability ([13]; first compound 1 µM): 0.705 | relative viability ([14]; first compound 0.01 µM): 0.784 | relative viability ([14]; first compound 0.03162 µM): 0.638 | relative viability ([14]; first compound 0.1 µM): 0.745 | relative viability ([14]; first compound 0.3162 µM): 0.82 | relative viability ([14]; first compound 1 µM): 0.76
